Measurements published in US11963969B2, “Method for prevention or treatment of amyotrophic lateral sclerosis by administering gastrodin” (BUDDHIST TZU CHI MEDICAL FOUNDATION, priority 2021, dated 2024).
“Also recorded” adds a separate entry of the source.

How the values were obtained:
patients with ALS = conditions: cited from earlier work
ALS motor neurons = assay: ALS motor neurons, summary of axon and neurofilament findings; format: cell-based, human; conditions: 72 hrs after addition of gastrodin
Procedure: (§1) The gastrodin was diluted with dimethyl sulfoxide (DMSO) to 10 mM, added to the motor neurons differentiated at Day 25, Day 35 and Day 45 at a dosage ratio of 1:1,000, and cultured for 72 hours (hrs) for various assays.

[1] = test system: SOD1^D90A ALS motor neurons; assay: NF staining of SOD1^D90A ALS iPSC-differentiated motor neurons; format: cell-based, human; conditions: for efficacy on increasing number of nerve fibers, gastrodin compared with riluzole / reduction of spherical nerve fiber beads, gastrodin compared with riluzole: comparison of gastrodin and riluzole
Procedure: as §1
(§2) A 4-well culture slide with a glass cover placed thereon was coated with 1% Geltrex®, placed at 37° C. for at least 3 to 4 hrs, washed with phosphate buffered saline (PBS) once after removal of the Geltrex®, and soaked in a culture medium until use. The embryoid bodies were dissociated with enzymes or mechanical force into smaller pieces, seeded on the 4-well culture slide, and cultured for 3 days (optionally for a longer period). After the cells adhered and extended outwards to present rosettes with a neural tube-like or a neuronal morphology, the immunofluorescent staining was then performed.
For the immunofluorescent staining, the medium was firstly removed, and then the cells were washed with PBS at room temperature twice. Next, 200 μL of 4% paraformaldehyde was added to the cells, and the mixture was reacted at room temperature for 5 to 15 min to fix the cells. The cells were washed with PBS for 3 times for 5 min each, and 200 μL of 99% methanol or 0.3% Triton® was added. The mixture was incubated for 5 to 15 min at 4° C., and the liquid was removed after permeabilization. The methanol, if used for fixation, was volatilized out. Then, the mixture was washed with PBS for 3 times (each for 5 min), and 200 μL of 5% horse serum was added at room temperature for at least 1 hr for blocking. […] The primary antibody was removed after conjugation for 16 hrs, followed by washing with PBS and Tween® 20 (abbreviated as PBST hereinafter) for 3 times for 5 min each, and a secondary antibody (prepared in PBS at a concentration of 1:500) was added. The secondary antibody was kept in dark for 1 hour at room temperature. After removal of the secondary antibody, the mixture was washed 3 times with PBST for 5 min each.
(§3) Thereafter, the cells were labeled via nuclear staining by adding 200 μL of 4′,6-diamidino-2-phenylindole (DAPI) (1 μg/mL), reacting in dark for 5 to 15 min at room temperature, removing DAPI, washing with PBST twice for 5 min each, removing PBST, adding PBS to maintain the cell moisture, lifting the glass coverslip with a needle tip, reversing the glass coverslip to the side with 50% glycerol or a mounting gel, storing in dark at 4° C., observing with a fluorescence microscope or a confocal microscope and photographing, and subsequently quantifying the numbers of neurofilaments and nerve fiber beads using an OLYMPUS cellSens Dimension Desktop 2.3 software.
In this Example, SOD1^D90A ALS iPSCs-differentiated motor neurons were used for comparing the efficacies of gastrodin and riluzole on improvement of ALS symptoms.

[2] = test system: B6SJL-Tg (SOD1*G93A) 1Gur/J transgenic mice; assay: ALS model mice: motor abilities, BBB score and survival; format: in vivo
Excerpt: The mice began to develop limb onsets in 80 to 90 days after birth, gradually lose ability to walk, and muscle weakness and atrophy started spreading to the upper parts of body. Most of their voluntary muscles became paralyzed and death after 110 to 120 days due to gradual loss of chewing ability and respiratory failure. The pathological characteristics include symptoms of amyotrophic lateral sclerosis such as muscular dystrophy, synaptic loss of motor neurons, degeneration and death of motor neurons, dismantling of the neuromuscular junction, etc.
Sixty days after birth, the ALS model mice (B6SJL-Tg (SOD1*G93A) 1Gur/J) were administered with gastrodin cycles once every 30 days as a single cycle, and 5 intraperitoneal injection of gastrodin was administered (with one day interval between every two intraperitoneal injections) at the first 10 days. No injection was administered during the subsequent 20 days. A total of two cycles of dosing may be performed until 120 days after birth.
The Example tested whether gastrodin improved the ALS symptoms of transgenic mice.
In this Example, beginning at 60 days after birth, the mice were administered with gastrodin by intraperitoneal injection at a dose of 50 mg/kg or 200 mg/kg for 5 times (with one day interval) every 30 days, until the mice degenerated severely to the extent that the hind lambs lost motor ability completely and until sacrificed. In this Example, motor abilities were tested, and survival time was recorded in days.

[3] = test system: sALS iPSC-differentiated motor neurons; assay: NF staining of motor neurons differentiated from sporadic ALS iPSCs; format: cell-based, human; conditions: after treatment with gastrodin
Procedure: as §1
as §2, with “After the cells adhered and extended outwards to present rosettes with a neural tube-like or a neuronal morphology, the immunofluorescent staining was then performed.” left out
as §3, with “software. […]” for “software.”

SOD1^D90A motor neurons = assay: Calcium ion image analysis after KCl and glutamate stimulation; format: cell-based, human
Procedure: as §1
Cells were seeded on a Geltrex®-coated round glass slide having a diameter of 10 mm, and cultured in a neurobasal medium supplemented with RevitaCell® and compound E for 3 days. 1 μM calcium fluorescent probe Fluo-4 solution was prepared in a physiological buffer containing […], 5 mM KCl, 2 mM CaCl2, 2 mM MgCl2, 10 mM glucose and 10 mM HEPES, and the glass slide on which the cells were seeded was transferred into the 1 μM Fluo-4 solution and cultured at 37° C. for 4 min. The glass slide was transferred into a physiological buffer and cultured at 37° C. for 20 min. The glass slide with cells seeded thereon was transferred into a calcium imaging chamber for imaging under perfusion.
Images were taken under perfusion with a physiological buffer for 30 seconds, then under perfusion with 60 mM KCl for 1 min, and then under perfusion with a physiological buffer for 5 min. Next, images were taken under perfusion with 1 mM glutamate for 1 min, and then under perfusion with a physiological buffer for 5 min. Images were captured with a microscope (Nikon ECLIPSE Ti2-E) and analyzed using NIS-Elements AR software. […]

[4] = test system: SOD1^G85R ALS motor neurons; assay: NF staining of SOD1^G85R ALS iPSC-differentiated motor neurons; format: cell-based, human; conditions: 10 μM gastrodin, 72 hrs, vs untreated
Procedure: as §1
as §2, with “After the cells adhered and extended outwards to present rosettes with a neural tube-like or a neuronal morphology, the immunofluorescent staining was then performed.” left out
as §3, with “software. […]” for “software.”

[5] = 10 μM gastrodin, 72 hrs, NF staining, vs untreated
[6] = intraperitoneal gastrodin from day 60, vs control

| SMILES | degeneration rate of motor ability (patients with ALS) | neural axons (ALS motor neurons) | neurofilament accumulation (ALS motor neurons) | amount of nerve fibers [1, 5] | spherical nerve fiber beads [1, 5] | efficacy on increasing number of nerve fibers, gastrodin compared with riluzole [1] | reduction of spherical nerve fiber beads, gastrodin compared with riluzole [1] | roller residence time ([2]; 50 mg/kg or 200 mg/kg intraperitoneal, 5 times every 30 days from day 60, vs control) | loss of motor ability ([2]; after injection of gastrodin) | mortality rate ([2]; after injection of gastrodin) | symptoms at an earlier stage ([2]; after injection of gastrodin) | suppression on loss of active ability, improvement ([2]; compared to the control group) | BBB scores [2, 6] | extension of life / overall survival time [2, 6] [days] | gripping strength of the hind limbs [2, 6] | amount of nerve fibers [3] | nerve fiber beads [3] | response of ALS motor neurons to KCl (SOD1^D90A motor neurons; KCl stimulation) | oversensitive response to glutamate (calcium ion flow) (SOD1^D90A motor neurons; treatment for 72 hrs, 1 mM glutamate stimulation) | amount of nerve fibers [4] |
| --- | --- | --- | --- | --- | --- | --- | --- | --- | --- | --- | --- | --- | --- | --- | --- | --- | --- | --- | --- | --- |
| CC1=NN(c2ccccc2)C(=O)C1 [Edaravone, edaravone] | can alleviate | – | – | – | – | – | – | – | – | – | – | – | – | – | – | – | – | – | – | – |
| OCc1ccc(O[C@@H]2O[C@H](CO)[C@@H](O)[C@H](O)[C@H]2O)cc1 [gastrodin] | – | Increased | reduced | increased | significantly decreased | comparable to riluzole | by an extent more than riluzole | obviously longer than that of the control; also recorded: increased | obviously delayed | reduced | delayed | about 20 days | retarded the decrease | 10 | clearly increased | increased | decreased | promoted | significantly decreased | significantly increase |
| Nc1nc2ccc(OC(F)(F)F)cc2s1 [riluzole, reference compound] | – | – | – | – | – | comparable to riluzole | by an extent more than riluzole | – | – | – | – | – | – | – | – | – | – | – | – | – |
